Test results reported in patent publication US9708318B2, “Bicyclic heterocycles as FGFR4 inhibitors” (Incyte Corporation, priority 2015, dated 2017).
Read-outs that look alike come from different tables or passages of the source.

Key:
[1] = biological target: FGFR1 (Homo sapiens (Human), UniProt P11362); assay: FGFR Enzymatic Assay (FRET peptide phosphorylation), FGFR1
[2] = biological target: FGFR2 (Homo sapiens (Human), UniProt P21802); assay: FGFR Enzymatic Assay (FRET peptide phosphorylation), FGFR2; format: biochemical
Chain of FGFR2 (P21802 22-821): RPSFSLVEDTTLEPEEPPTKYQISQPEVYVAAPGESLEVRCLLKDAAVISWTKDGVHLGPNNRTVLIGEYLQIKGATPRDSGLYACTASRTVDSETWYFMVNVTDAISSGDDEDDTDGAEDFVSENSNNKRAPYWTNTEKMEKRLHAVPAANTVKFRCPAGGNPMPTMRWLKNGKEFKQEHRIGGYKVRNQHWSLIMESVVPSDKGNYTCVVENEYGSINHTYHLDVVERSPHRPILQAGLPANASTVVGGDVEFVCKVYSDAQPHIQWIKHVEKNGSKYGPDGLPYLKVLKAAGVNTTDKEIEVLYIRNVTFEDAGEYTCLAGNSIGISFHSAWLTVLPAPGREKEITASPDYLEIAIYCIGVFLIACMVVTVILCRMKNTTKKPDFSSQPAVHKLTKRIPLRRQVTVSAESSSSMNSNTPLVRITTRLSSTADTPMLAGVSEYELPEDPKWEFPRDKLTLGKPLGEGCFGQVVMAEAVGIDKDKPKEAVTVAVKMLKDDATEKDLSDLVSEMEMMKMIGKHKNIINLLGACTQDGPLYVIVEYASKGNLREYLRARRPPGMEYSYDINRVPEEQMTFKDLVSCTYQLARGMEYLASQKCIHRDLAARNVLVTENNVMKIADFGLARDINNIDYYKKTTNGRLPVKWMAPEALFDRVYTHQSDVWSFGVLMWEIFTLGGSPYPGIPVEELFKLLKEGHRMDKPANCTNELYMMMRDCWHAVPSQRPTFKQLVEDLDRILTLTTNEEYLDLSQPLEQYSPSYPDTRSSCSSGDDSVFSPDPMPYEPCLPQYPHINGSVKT
Description: (§1) The inhibitor potency of the exemplified compounds was measured in an enzyme assay that measures peptide phosphorylation using FRET measurements to detect product formation. Inhibitors were serially diluted in DMSO and a volume of 0.5 μL was transferred to the wells of a 384-well plate.
(§2) The enzymes were purchased from Millipore or Invitrogen.
(§3) GraphPad prism3 was used to analyze the data.

[3] = biological target: FGFR4 (Homo sapiens (Human), UniProt P22455); assay: FGFR Enzymatic Assay (FRET peptide phosphorylation), FGFR4; format: biochemical; settings: for FGFR1/FGFR4 IC50 ratio / FGFR2/FGFR4 IC50 ratio / FGFR3/FGFR4 IC50 ratio: FGFR4 selectivity
Chain of FGFR4 (P22455 22-802): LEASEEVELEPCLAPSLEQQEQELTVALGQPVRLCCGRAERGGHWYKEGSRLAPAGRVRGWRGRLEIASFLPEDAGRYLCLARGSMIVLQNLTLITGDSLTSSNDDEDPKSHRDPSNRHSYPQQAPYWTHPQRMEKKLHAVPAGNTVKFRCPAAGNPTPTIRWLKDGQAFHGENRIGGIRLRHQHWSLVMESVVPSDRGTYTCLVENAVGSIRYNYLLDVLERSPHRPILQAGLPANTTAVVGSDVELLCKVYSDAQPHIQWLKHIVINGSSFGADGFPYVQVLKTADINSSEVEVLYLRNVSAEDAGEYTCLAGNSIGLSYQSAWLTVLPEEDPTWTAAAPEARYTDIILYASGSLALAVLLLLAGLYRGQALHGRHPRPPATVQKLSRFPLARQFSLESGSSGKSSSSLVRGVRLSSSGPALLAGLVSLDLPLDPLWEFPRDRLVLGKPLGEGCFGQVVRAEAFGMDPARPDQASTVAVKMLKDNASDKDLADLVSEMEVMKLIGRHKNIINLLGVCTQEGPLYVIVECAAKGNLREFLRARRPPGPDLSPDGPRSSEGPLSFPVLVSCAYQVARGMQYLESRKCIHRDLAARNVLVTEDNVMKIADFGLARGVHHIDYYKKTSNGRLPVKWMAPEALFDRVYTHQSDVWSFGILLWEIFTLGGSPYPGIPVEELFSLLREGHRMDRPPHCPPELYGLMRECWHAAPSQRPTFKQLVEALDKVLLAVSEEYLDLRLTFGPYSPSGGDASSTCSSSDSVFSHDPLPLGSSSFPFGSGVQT
Description: as §1, §2, §3

[4] = biological target: FGFR3 enzyme (Homo sapiens (Human), UniProt P22607); assay: FGFR Enzymatic Assay (FRET peptide phosphorylation), FGFR3; format: biochemical; settings: for FGFR1/FGFR3 IC50 ratio / FGFR4/FGFR3 IC50 ratio: FGFR3 selectivity
Chain of FGFR3 enzyme (P22607 23-806): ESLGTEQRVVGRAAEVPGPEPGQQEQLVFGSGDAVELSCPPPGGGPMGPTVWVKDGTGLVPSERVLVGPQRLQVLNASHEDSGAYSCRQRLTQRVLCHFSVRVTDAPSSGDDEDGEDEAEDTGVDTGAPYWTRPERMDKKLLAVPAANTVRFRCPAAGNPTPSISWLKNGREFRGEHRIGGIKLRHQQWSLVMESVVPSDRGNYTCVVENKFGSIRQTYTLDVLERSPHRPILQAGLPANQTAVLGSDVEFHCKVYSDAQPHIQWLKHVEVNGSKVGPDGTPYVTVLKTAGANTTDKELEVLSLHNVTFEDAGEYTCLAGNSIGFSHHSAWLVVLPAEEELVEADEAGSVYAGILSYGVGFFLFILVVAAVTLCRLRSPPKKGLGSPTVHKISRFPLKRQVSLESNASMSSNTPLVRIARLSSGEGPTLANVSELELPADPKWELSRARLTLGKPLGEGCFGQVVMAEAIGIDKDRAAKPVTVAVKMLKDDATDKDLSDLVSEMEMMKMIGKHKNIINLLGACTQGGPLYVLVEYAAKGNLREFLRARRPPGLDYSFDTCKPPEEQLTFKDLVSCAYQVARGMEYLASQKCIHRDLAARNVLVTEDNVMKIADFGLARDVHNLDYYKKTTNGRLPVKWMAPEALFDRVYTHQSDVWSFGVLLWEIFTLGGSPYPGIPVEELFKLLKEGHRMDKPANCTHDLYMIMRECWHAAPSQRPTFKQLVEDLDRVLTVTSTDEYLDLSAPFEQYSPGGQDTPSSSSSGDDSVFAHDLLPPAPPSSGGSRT
Description: as §1, §3

[5] = FGFR1 IC50 (nM), pre-incubated for 4 hours
[6] = pre-incubated for 4 hours, read-out: FGFR3 IC50
[7] = read-out: FGFR1 IC50, pre-incubated for 4 hours
[8] = FGFR1 IC50 (nM), pre-incubated for 5 to 10 minutes
[9] = pre-incubated for 5 to 10 minutes
[10] = pre-incubated for 5 to 10 minutes, read-out: FGFR3 IC50
[11] = read-out: FGFR1 IC50, pre-incubated for 5 to 10 minutes

Chain of FGFR1 (P11362 22-822): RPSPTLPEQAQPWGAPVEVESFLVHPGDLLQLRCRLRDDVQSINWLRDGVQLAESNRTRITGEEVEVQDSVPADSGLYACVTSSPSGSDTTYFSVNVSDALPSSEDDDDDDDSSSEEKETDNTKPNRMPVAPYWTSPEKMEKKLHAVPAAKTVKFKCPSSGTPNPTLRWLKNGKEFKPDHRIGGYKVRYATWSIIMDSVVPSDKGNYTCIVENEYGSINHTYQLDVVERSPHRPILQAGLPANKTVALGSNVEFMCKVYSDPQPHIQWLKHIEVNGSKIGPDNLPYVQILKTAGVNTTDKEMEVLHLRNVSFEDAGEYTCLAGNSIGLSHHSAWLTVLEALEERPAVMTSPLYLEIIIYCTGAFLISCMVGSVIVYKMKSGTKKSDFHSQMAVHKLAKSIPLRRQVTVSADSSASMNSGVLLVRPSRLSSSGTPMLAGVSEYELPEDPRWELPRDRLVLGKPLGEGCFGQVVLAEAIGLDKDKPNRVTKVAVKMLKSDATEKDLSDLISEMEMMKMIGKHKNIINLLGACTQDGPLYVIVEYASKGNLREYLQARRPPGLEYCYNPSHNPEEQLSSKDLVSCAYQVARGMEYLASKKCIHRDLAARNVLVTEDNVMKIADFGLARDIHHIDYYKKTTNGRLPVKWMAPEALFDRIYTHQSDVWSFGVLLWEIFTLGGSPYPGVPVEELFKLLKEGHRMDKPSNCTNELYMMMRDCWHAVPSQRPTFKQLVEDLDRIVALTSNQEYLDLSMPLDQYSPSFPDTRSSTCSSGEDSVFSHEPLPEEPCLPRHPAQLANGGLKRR

IC50 [1, 5] [nM]	IC50 ([2]; pre-incubated for 4 hours) [nM]	IC50 ([3]; pre-incubated for 4 hours) [nM]	FGFR1/FGFR3 IC50 ratio ([4]; pre-incubated for 4 hours)	FGFR4/FGFR3 IC50 ratio ([4]; pre-incubated for 4 hours)	IC50 [4, 6] [nM]	IC50 [2, 9] [nM]	IC50 [3, 9] [nM]	IC50 [4, 10] [nM]	Compound	other results
30 to 200	10 to 30	30 to 200	>5	>10	10 to 30				COc1cc(OC)c(F)c(N2Cc3cnc(-c4cn(C)nc4C)cc3N(c3ccc(S(C)(=O)=O)cc3)C2=O)c1F [Example 98, 3-(2,6-difluoro-3,5-dimethoxyphenyl)-7-(1,3-dimethyl-1H-pyrazol-4-yl)-1-(4-(methylsulfonyl)phenyl)-3,4-dihydropyrido[4,3-d]pyrimidin-2(1H)-one]	
	< 10	10 to 30	>3	>3	< 10				COc1cc(OC)c(F)c(N2Cc3cnc(-c4cnn(CC5CN(C(C)=O)C5)c4)cc3C3(CC3)C2=O)c1F [Example 167, 6′-(1-((1-acetylazetidin-3-yl)methyl)-1H-pyrazol-4-yl)-2′-(2,6-difluoro-3,5-dimethoxyphenyl)-1′H-spiro[cyclopropane-1,4′-[2,7]naphthyridin]-3′(2′H)-one]	IC50 [1, 7]: < 10 nM
10 to 30	< 10	30 to 200	>5	>10	< 10				COc1cc(OC)c(F)c(N2Cc3cnc(-c4cn(C)nc4C)cc3N(c3cccc(-c4cnnn4C)c3)C2=O)c1F [Example 89, 3-(2,6-difluoro-3,5-dimethoxyphenyl)-7-(1,3-dimethyl-1H-pyrazol-4-yl)-1-(3-(1-methyl-1H-1,2,3-triazol-5-yl)phenyl)-3,4-dihydropyrido[4,3-d]pyrimidin-2(1H)-one]	
						< 10	10 to 30	< 10	COc1cc(OC)c(F)c(N2Cc3cnc(-c4cn(C)nc4C)cc3N(Cc3cnn(CC(F)F)c3)C2=O)c1F [Example 128, 3-(2,6-difluoro-3,5-dimethoxyphenyl)-1-((1-(2,2-difluoroethyl)-1H-pyrazol-4-yl)methyl)-7-(1,3-dimethyl-1H-pyrazol-4-yl)-3,4-dihydropyrido[4,3-d]pyrimidin-2(1H)-one]	IC50 [1, 11]: < 10 nM
	30 to 200	< 10	>3		30 to 200	30 to 200	< 10	30 to 200	COc1cc(OC)c(F)c(N2Cc3cnc(-c4cncc(-n5ccnc5)c4)cc3C3(CC3)C2=O)c1F [Example 12, 6′-(5-(1H-imidazol-1-yl)pyridin-3-yl)-2′-(2,6-difluoro-3,5-dimethoxyphenyl)-1′H-spiro[cyclopropane-1,4′-[2,7]naphthyridin]-3′(2′H)-one]	IC50 [1, 11]: > 200 nM; IC50 [1, 7]: > 200 nM; FGFR1/FGFR4 IC50 ratio [3, 9]: >50; FGFR2/FGFR4 IC50 ratio [3, 9]: >25; FGFR3/FGFR4 IC50 ratio [3, 9]: >20; FGFR1/FGFR4 IC50 ratio ([3]; pre-incubated for 4 hours): >50; FGFR2/FGFR4 IC50 ratio ([3]; pre-incubated for 4 hours): >25; FGFR3/FGFR4 IC50 ratio ([3]; pre-incubated for 4 hours): >10
30 to 200	< 10	10 to 30	>5	>3	< 10				COC(=O)Nc1ccc(N2C(=O)N(c3c(F)c(OC)cc(OC)c3F)Cc3cnc(-c4cn(C)nc4C)cc32)cc1 [Example 123, Methyl 4-(3-(2,6-difluoro-3,5-dimethoxyphenyl)-7-(1,3-dimethyl-1H-pyrazol-4-yl)-2-oxo-3,4-dihydropyrido[4,3-d]pyrimidin-1(2H)-yl)phenylcarbamate]	
30 to 200	30 to 200	30 to 200	>5	>1	10 to 30				COc1cc(OC)c(F)c(N2Cc3cnc(-c4cn(Cc5cccnc5)nc4C)cc3C3(CC3)C2=O)c1F [Example 155, 2′-(2,6-difluoro-3,5-dimethoxyphenyl)-6′-(3-methyl-1-(pyridin-3-ylmethyl)-1H-pyrazol-4-yl)-1′H-spiro[cyclopropane-1,4′-[2,7]naphthyridin]-3′(2′H)-one]	
30 to 200	10 to 30	> 200	>5	>10	10 to 30				COc1cc(N2C(=O)N(c3c(F)c(OC)cc(OC)c3F)Cc3cnc(-c4cn(C)nc4C)cc32)ccc1C#N [Example 81, 4-(3-(2,6-difluoro-3,5-dimethoxyphenyl)-7-(1,3-dimethyl-1H-pyrazol-4-yl)-2-oxo-3,4-dihydropyrido[4,3-d]pyrimidin-1(2H)-yl)-2-methoxybenzonitrile]	
						< 10	30 to 200	< 10	COCCN1C(=O)N(c2c(F)c(OC)cc(OC)c2F)Cc2cnc(-c3ccc(C4(C#N)CCC4)nc3)cc21 [Example 139, 1-(5-(3-(2,6-difluoro-3,5-dimethoxyphenyl)-1-(2-methoxyethyl)-2-oxo-1,2,3,4-tetrahydropyrido[4,3-d]pyrimidin-7-yl)pyridin-2-yl)cyclobutanecarbonitrile]	IC50 [1, 8]: 30 to 200 nM

Further lines, the compound ahead of its results:

Compound	IC50 [1, 5] [nM]	IC50 ([2]; pre-incubated for 4 hours) [nM]	IC50 ([3]; pre-incubated for 4 hours) [nM]	FGFR1/FGFR3 IC50 ratio ([4]; pre-incubated for 4 hours)	FGFR4/FGFR3 IC50 ratio ([4]; pre-incubated for 4 hours)	IC50 [4, 6] [nM]	IC50 [2, 9] [nM]	IC50 [3, 9] [nM]	IC50 [4, 10] [nM]	other results
COc1cc(OC)c(F)c(N2Cc3cnc(-c4cn(C)nc4C)cc3N(C3CCOC3)C2=O)c1F (stereo not drawn) [Example 33, 3-(2,6-difluoro-3,5-dimethoxyphenyl)-7-(1,3-dimethyl-1H-pyrazol-4-yl)-1-(tetrahydrofuran-3-yl)-3,4-dihydropyrido[4,3-d]pyrimidin-2(1H)-one]	30 to 200	< 10	30 to 200	>5	>5	< 10				
COc1cc(OC)c(F)c(N2Cc3cnc(-c4cn(C)nc4C)cc3N(C3CCN(S(C)(=O)=O)CC3)C2=O)c1F [Example 71, 3-(2,6-difluoro-3,5-dimethoxyphenyl)-7-(1,3-dimethyl-1H-pyrazol-4-yl)-1-(1-(methylsulfonyl)piperidin-4-yl)-3,4-dihydropyrido[4,3-d]pyrimidin-2(1H)-one]		30 to 200	30 to 200	>5	>3					IC50 [1]: 30 to 200 nM; IC50 [4]: 10 to 30 nM
COc1cc(OC)c(F)c(N2Cc3cnc(-c4ccc(C5(C#N)CCC5)nc4)cc3N(Cc3nnc(C)o3)C2=O)c1F [Example 187, 1-(5-{3-(2,6-difluoro-3,5-dimethoxyphenyl)-1-[(5-methyl-1,3,4-oxadiazol-2-yl)methyl]-2-oxo-1,2,3,4-tetrahydropyrido[4,3-d]pyrimidin-7-yl}pyridin-2-yl)cyclobutanecarbonitrile]	30 to 200	< 10	30 to 200	>10	>10	< 10	< 10	30 to 200	< 10	IC50 [1, 8]: 10 to 30 nM
COc1cc(OC)c(F)c(N2Cc3cnc(-c4ccc(C#N)nc4)cc3C3(CC3)C2=O)c1F [Example 20, 5-(2′-(2,6-difluoro-3,5-dimethoxyphenyl)-3′-oxo-2′,3′-dihydro-1′H-spiro[cyclopropane-1,4′-[2,7]naphthyridine]-6′-yl)picolinonitrile]	30 to 200	10 to 30	10 to 30	>5		10 to 30				
COc1cc(OC)c(F)c(N2Cc3cnc(-c4cn(C)nc4C)cc3N(Cc3ccc4c(c3)nnn4C)C2=O)c1F [Example 118, 3-(2,6-difluoro-3,5-dimethoxyphenyl)-7-(1,3-dimethyl-1H-pyrazol-4-yl)-1-((1-methyl-1H-benzo[d][1,2,3]triazol-5-yl)methyl)-3,4-dihydropyrido[4,3-d]pyrimidin-2(1H)-one]							10 to 30	30 to 200	10 to 30	IC50 [1, 8]: 30 to 200 nM
COc1cc(OC)c(F)c(N2Cc3cnc(-c4cncc(C(=O)N5CCOCC5)c4)cc3C3(CC3)C2=O)c1F [Example 13, 2′-(2,6-difluoro-3,5-dimethoxyphenyl)-6′-(5-(morpholine-4-carbonyl)pyridin-3-yl)-1′H-spiro[cyclopropane-1,4′-[2,7]naphthyridin]-3′(2′H)-one]		30 to 200	< 10	>3		30 to 200	30 to 200	< 10	30 to 200	IC50 [1, 11]: > 200 nM; IC50 [1, 7]: > 200 nM; FGFR1/FGFR4 IC50 ratio [3, 9]: >50; FGFR2/FGFR4 IC50 ratio [3, 9]: >20; FGFR3/FGFR4 IC50 ratio [3, 9]: >10; FGFR1/FGFR4 IC50 ratio ([3]; pre-incubated for 4 hours): >50; FGFR2/FGFR4 IC50 ratio ([3]; pre-incubated for 4 hours): >25; FGFR3/FGFR4 IC50 ratio ([3]; pre-incubated for 4 hours): >10
COc1cc(OC)c(F)c(N2Cc3cnc(-c4cn(C)nc4C)cc3N(Cc3cncnc3)C2=O)c1F [Example 84, 3-(2,6-difluoro-3,5-dimethoxyphenyl)-7-(1,3-dimethyl-1H-pyrazol-4-yl)-1-(pyrimidin-5-ylmethyl)-3,4-dihydropyrido[4,3-d]pyrimidin-2(1H)-one]	30 to 200	< 10	30 to 200	>5	>5	< 10				
COc1cc(OC)c(F)c(N2Cc3cnc(-c4ccc(C5(C#N)CCC5)nc4)cc3N(c3ccncn3)C2=O)c1F [Example 135, 1-(5-(3-(2,6-difluoro-3,5-dimethoxyphenyl)-2-oxo-1-(pyrimidin-4-yl)-1,2,3,4-tetrahydropyrido[4,3-d]pyrimidin-7-yl)pyridin-2-yl)cyclobutanecarbonitrile]	30 to 200	< 10	30 to 200	>5	>10	< 10				
